Values after ≈ are worked out from the molar mass of the structure shown. Read-outs that look alike come from different tables or passages of the source.
Assays:
[1] = test system: P. asaccharolyticus ATCC14963; assay: MIC against anaerobic bacteria; type: cell-based; settings: Peptoniphilus asaccharolyticus
P. anaerobius B-38 = assay: MIC against anaerobic bacteria; type: cell-based; settings: Peptostreptococcus anaerobius, B38
P. prevotii ATCC9321 = assay: MIC against anaerobic bacteria; type: cell-based; settings: Anaerococcus prevotii
P. micros VPI5464-1 = assay: MIC against anaerobic bacteria; type: cell-based; settings: Parvimonas micra, VPI54641
[2] = test system: S. constellatus ATCC27823; assay: MIC against anaerobic bacteria; type: cell-based; settings: Streptococcus constellatus
E. lentum II-1 = assay: MIC against anaerobic bacteria; type: cell-based; settings: Eggerthella lenta, II1
E. limosum ATCC8486 = assay: MIC against anaerobic bacteria; type: cell-based; settings: Eubacterium limosum
E. aerofaciens ATCC25986 = assay: MIC against anaerobic bacteria; type: cell-based; settings: Collinsella aerofaciens
P. acens ATCC11827 = assay: MIC against anaerobic bacteria; type: cell-based
B. adolescentis JCM1250 = assay: MIC against anaerobic bacteria; type: cell-based; settings: Bifidobacterium adolescentis; B. adolescentis JCM1250; read-out: MIC
B. bifidum JCM1122 = assay: MIC against anaerobic bacteria; type: cell-based; settings: Bifidobacterium bifidum; B. bifidum JCM1122; read-out: MIC
B. longum ATCC15707 = assay: MIC against anaerobic bacteria; type: cell-based; settings: Bifidobacterium longum, ATCC15707
L. plantarum JCM1100 = assay: MIC against anaerobic bacteria; type: cell-based; settings: Lactiplantibacillus plantarum; L. plantarum JCM1100; read-out: MIC
L. ruminis ATCC27780 = assay: MIC against anaerobic bacteria; type: cell-based
C. perfringens SAKAI = assay: microbe, parasite or virus in culture; type: cell-based; settings: Clostridium perfringens
C. perfringens ATCC13124 = assay: microbe, parasite or virus in culture; type: cell-based; settings: Clostridium perfringens
C. difficile ATCC17857 = assay: MIC against anaerobic bacteria; type: cell-based; settings: Clostridioides difficile
B. fragilis GM7000 = assay: MIC against anaerobic bacteria; type: cell-based; settings: Bacteroides fragilis
B. fragilis ATCC25285 = assay: MIC against anaerobic bacteria; type: cell-based; settings: Bacteroides fragilis
[3] = test system: B. thetaiotaomicron WAL3304; assay: MIC against anaerobic bacteria; type: cell-based; settings: Bacteroides thetaiotaomicron
B. vulgatus ATCC29327 = assay: MIC against anaerobic bacteria; type: cell-based; settings: Phocaeicola vulgatus
B. distasonis JU-11-1 = assay: MIC against anaerobic bacteria; type: cell-based; settings: Parabacteroides distasonis, JU111
B. ovatus 2505 = assay: MIC against anaerobic bacteria; type: cell-based; settings: Bacteroides ovatus
[4] = test system: B. melaninogenicus GAI0413; assay: MIC against anaerobic bacteria; type: cell-based; settings: B. melaninogenicus GAI0413; read-out: MIC
F. varium ATCC8501 = assay: MIC against anaerobic bacteria; type: cell-based; settings: Fusobacterium varium
F. necrophorum ATCC25286 = assay: MIC against anaerobic bacteria; type: cell-based; settings: Fusobacterium necrophorum
F. nucleatum ATCC25586 = assay: MIC against anaerobic bacteria; type: cell-based; settings: Fusobacterium nucleatum
F. mortiferum ATCC9817 = assay: MIC against anaerobic bacteria; type: cell-based; settings: Fusobacterium mortiferum; F. mortiferum ATCC9817; read-out: MIC
anaerobic bacteria = assay: antibacterial activity against anaerobic bacteria (summary); type: cell-based; settings: in words
[5] = filter paper electrophoresis and bioautography (acidic property); type: physicochemical
From the text: Other physicochemical properties of PB-6042s in the form of sodium salt are listed below.

S. aureus FDA JC-1 = assay: MIC against aerobic bacteria; settings: Staphylococcus aureus, FDAJC1
S. aureus SR14(R) = assay: MIC against aerobic bacteria; settings: Staphylococcus aureus
S. pyogenes C-203 = assay: MIC against aerobic bacteria; settings: Streptococcus pyogenes, C203
S. pneumoniae TYPE 1 = assay: MIC against aerobic bacteria; settings: Streptococcus pneumoniae, TYPE1
E. coli NIHJ JC-2 = assay: MIC against aerobic bacteria; settings: Escherichia coli, NIHJJC2
K. pneumoniae SR1 = assay: MIC against aerobic bacteria; settings: Klebsiella pneumoniae
P. vulgaris CN-329 = assay: MIC against aerobic bacteria; settings: Proteus vulgaris, CN329
P. aeruginosa A25619 = assay: MIC against aerobic bacteria; settings: Pseudomonas aeruginosa
V. parvula ATCC10790 = assay: MIC against anaerobic bacteria; type: cell-based; settings: Veillonella parvula
[6] = antibacterial activity and acidic property of reduced PB-6042A: antibacterial activity; type: cell-based; settings: after H2/PtO2 reduction
[7] = acidic property of reduced PB-6042A; settings: after H2/PtO2 reduction

Row | SMILES | MIC (P. anaerobius B-38) [µg/mL] | MIC (P. micros VPI5464-1) [µg/mL] | MIC [2] [µg/mL] | MIC (E. lentum II-1) [µg/mL] | MIC (P. acens ATCC11827) [µg/mL] | MIC (B. adolescentis JCM1250) [µg/mL] | MIC (B. bifidum JCM1122) [µg/mL] | MIC (B. longum ATCC15707) [µg/mL] | MIC (L. plantarum JCM1100) [µg/mL] | MIC (C. perfringens SAKAI) [µg/mL] | MIC (C. perfringens ATCC13124) [µg/mL] | MIC (C. difficile ATCC17857) [µg/mL] | MIC [4] [µg/mL] | MIC (F. varium ATCC8501) [µg/mL] | MIC (F. nucleatum ATCC25586) [µg/mL] | MIC (F. mortiferum ATCC9817) [µg/mL] | growth inhibition of anaerobic bacteria (anaerobic bacteria) | acidic property [5] | MIC (S. aureus FDA JC-1) [µg/mL] | MIC (S. aureus SR14(R)) [µg/mL] | other results
1 | C=C1OC(=O)C(C(=O)CCCCCCCCCCC)=C1O [PB-6042C] | 0.78 (≈ 2.65 µM) | 0.78 (≈ 2.65 µM) | 0.78 (≈ 2.65 µM) | 3.13 (≈ 10.6 µM) | 0.78 (≈ 2.65 µM) | 0.78 (≈ 2.65 µM) | 6.25 (≈ 21.2 µM) | 3.13 (≈ 10.6 µM) | 6.25 (≈ 21.2 µM) | 3.13 (≈ 10.6 µM) | 3.13 (≈ 10.6 µM) | 0.78 (≈ 2.65 µM) | 6.25 (≈ 21.2 µM) | > 100 | 12.5 (≈ 42.5 µM) | 25 (≈ 84.9 µM) | inhibit the growth of anaerobic bacteria, selectively | acidic substances | > 100 | > 100 | MIC ([1]; ATCC14963): 3.13 µg/mL (≈ 10.6 µM); MIC (P. prevotii ATCC9321; ATCC9321): 3.13 µg/mL (≈ 10.6 µM); MIC (E. limosum ATCC8486; E. limosum ATCC8486, read-out: MIC): 1.56 µg/mL (≈ 5.3 µM); MIC (E. aerofaciens ATCC25986; ATCC25986): 3.13 µg/mL (≈ 10.6 µM); MIC (L. ruminis ATCC27780; L. ruminis ATCC27780, read-out: MIC): 1.56 µg/mL (≈ 5.3 µM); MIC (B. fragilis GM7000; GM7000): 3.13 µg/mL (≈ 10.6 µM); MIC (B. fragilis ATCC25285; B. fragilis ATCC25285, read-out: MIC): 1.56 µg/mL (≈ 5.3 µM); MIC ([3]; WAL3304): 3.13 µg/mL (≈ 10.6 µM); MIC (B. vulgatus ATCC29327; ATCC29327): 3.13 µg/mL (≈ 10.6 µM); MIC (B. distasonis JU-11-1): 3.13 µg/mL (≈ 10.6 µM); MIC (B. ovatus 2505; 2505): 3.13 µg/mL (≈ 10.6 µM); MIC (F. necrophorum ATCC25286): 12.5 µg/mL (≈ 42.5 µM); MIC (S. pyogenes C-203): 12.5 µg/mL (≈ 42.5 µM); MIC (S. pneumoniae TYPE 1): 12.5 µg/mL (≈ 42.5 µM); MIC (E. coli NIHJ JC-2): > 100 µg/mL; MIC (K. pneumoniae SR1): > 100 µg/mL; MIC (P. vulgaris CN-329): > 100 µg/mL; MIC (P. aeruginosa A25619): > 100 µg/mL
2 | C=C1OC(=O)C(C(=O)CCCC/C=C\CCCCCCC)=C1O [PB-6042D] | 1.56 (≈ 4.87 µM) | 0.78 (≈ 2.43 µM) | 1.56 (≈ 4.87 µM) | 3.13 (≈ 9.77 µM) | 1.56 (≈ 4.87 µM) | 6.25 (≈ 19.5 µM) | 6.25 (≈ 19.5 µM) | 3.13 (≈ 9.77 µM) | 6.25 (≈ 19.5 µM) | 3.13 (≈ 9.77 µM) | 3.13 (≈ 9.77 µM) | 1.56 (≈ 4.87 µM) | 12.5 (≈ 39 µM) | > 100 | 25 (≈ 78 µM) | > 100 | inhibit the growth of anaerobic bacteria, selectively | acidic substances | > 100 | 12.5 (≈ 39 µM) | MIC ([1]; P. asaccharolyticus ATCC14963, read-out: MIC): 6.25 µg/mL (≈ 19.5 µM); MIC (P. prevotii ATCC9321; P. prevotii ATCC9321, read-out: MIC): 6.25 µg/mL (≈ 19.5 µM); MIC (E. limosum ATCC8486; ATCC8486): 3.13 µg/mL (≈ 9.77 µM); MIC (E. aerofaciens ATCC25986; E. aerofaciens ATCC25986, read-out: MIC): 6.25 µg/mL (≈ 19.5 µM); MIC (L. ruminis ATCC27780): 3.13 µg/mL (≈ 9.77 µM); MIC (V. parvula ATCC10790): > 100 µg/mL; MIC (B. fragilis GM7000; B. fragilis GM7000, read-out: MIC): 6.25 µg/mL (≈ 19.5 µM); MIC (B. fragilis ATCC25285; ATCC25285): 3.13 µg/mL (≈ 9.77 µM); MIC ([3]; B. thetaiotaomicron WAL3304, read-out: MIC): 6.25 µg/mL (≈ 19.5 µM); MIC (B. vulgatus ATCC29327; B. vulgatus ATCC29327, read-out: MIC): 12.5 µg/mL (≈ 39 µM); MIC (B. distasonis JU-11-1; B. distasonis JU-11-1, read-out: MIC): 12.5 µg/mL (≈ 39 µM); MIC (B. ovatus 2505; B. ovatus 2505, read-out: MIC): 12.5 µg/mL (≈ 39 µM); MIC (S. pyogenes C-203): 12.5 µg/mL (≈ 39 µM); MIC (S. pneumoniae TYPE 1): 12.5 µg/mL (≈ 39 µM); MIC (E. coli NIHJ JC-2): > 100 µg/mL; MIC (K. pneumoniae SR1): > 100 µg/mL; MIC (P. vulgaris CN-329): > 100 µg/mL; MIC (P. aeruginosa A25619): > 100 µg/mL
3 | CCCCCCCCCC(=O)C1=C(O)C(C)OC1=O (stereo not drawn) [reduced product] | – | – | – | – | – | – | – | – | – | – | – | – | – | – | – | – | – | – | – | – | antibacterial activity of reduced product [6]: maintained antibacterial activity; acidic property of reduced product [7]: maintained antibacterial activity and acidic property
